Assay results from ChEMBL document CHEMBL1130210, “Steroidal glycoside cholesterol absorption inhibitors” (1997).

What was measured:
[1] = system: Cricetinae gen. sp.; assay: Compound was tested for its ability to inhibit the intestinal absorption of [3H]cholesterol in cholesterol-fed hamsters at 5 mg/kg dose; assay type: functional, Cricetulus griseus
[2] = system: Cricetinae gen. sp.; assay: Compound was tested for its ability to inhibit the intestinal absorption of [3H]cholesterol in cholesterol-fed hamsters at 100 mg/kg dose; assay type: functional, Cricetulus griseus
[3] = system: Cricetinae gen. sp.; assay: Compound was tested for its ability to inhibit the intestinal absorption of [3H]cholesterol in cholesterol-fed hamsters at 10 mg/kg dose; assay type: functional, Cricetulus griseus
[4] = system: Cricetinae gen. sp.; assay: Compound was tested for its ability to inhibit the intestinal absorption of [3H]cholesterol in cholesterol-fed hamsters at 200 mg/kg dose; assay type: functional, Cricetulus griseus
[5] = system: Cricetinae gen. sp.; assay: Ability to inhibit the intestinal absorption of [3H]cholesterol in cholesterol-fed hamsters; assay type: functional

| Compound | ED50 [5] [mg/kg] | also measured |
| --- | --- | --- |
| C[C@@H]1CC[C@@]2(OC1)OC1CC3C4CC[C@H]5C[C@@H](O[C@@H]6O[C@@H](COC(=O)Nc7ccc(Cl)cc7)[C@@H](O[C@@H]7O[C@@H](CO)[C@@H](O)[C@H](O)[C@@H]7O)[C@H](O)[C@@H]6O)CC[C@]5(C)C4C(=O)C[C@]3(C)C1[C@@H]2C (stereo not given in full) |  | inhibition in vivo at 5 mg/kg [1]: 37% |
| C[C@]12CC[C@@H]3c4ccc(O[C@@H]5O[C@@H](CO)[C@@H](O[C@@H]6O[C@@H](CO)[C@@H](O)[C@H](O)[C@@H]6O)[C@H](O)[C@@H]5O)cc4CC[C@H]3[C@@H]1CCC2=O |  | inhibition in vivo at 100 mg/kg [2]: 14% |
| C[C@@H]1CC[C@@]2(OC1)OC1C[C@H]3[C@@H]4CC[C@H]5C[C@@H](O[C@@H]6O[C@@H](CO)[C@@H](O[C@@H]7O[C@@H](CO)[C@@H](O)[C@H](O)[C@@H]7O)[C@H](O)[C@@H]6O)CC[C@]5(C)[C@H]4C(=O)C[C@]3(C)C1[C@@H]2C (stereo not given in full) |  | inhibition in vivo at 10 mg/kg [3]: 23% |
| C[C@@]12CCC[C@H]1[C@@H]1CC[C@H]3C[C@@H](O[C@@H]4O[C@@H](CO)[C@@H](O[C@@H]5O[C@@H](CO)[C@@H](O)[C@H](O)[C@@H]5O)[C@H](O)[C@@H]4O)CC[C@]3(C)[C@H]1CC2 |  | inhibition in vivo at 200 mg/kg [4]: 37% |
| C[C@@H]1CC[C@@]2(OC1)OC1CC3C4CC[C@H]5C[C@@H](O[C@@H]6O[C@@H](CO)[C@@H](O[C@@H]7O[C@@H](COC(=O)Nc8c(Cl)cccc8Cl)[C@@H](OC(=O)Nc8c(Cl)cccc8Cl)[C@H](O)[C@@H]7O)[C@H](O)[C@@H]6O)CC[C@]5(C)C4C(=O)C[C@]3(C)C1[C@@H]2C (stereo not given in full) |  | inhibition in vivo at 5 mg/kg [1]: 40% |
| C[C@@H]1CC[C@@]2(OC1)OC1CC3C4CC[C@H]5C[C@@H](O[C@@H]6O[C@@H](CO)[C@@H](O[C@@H]7O[C@@H](COC(=O)Nc8ccc(Cl)cc8)[C@@H](O)[C@H](O)[C@@H]7O)[C@H](O)[C@@H]6O)CC[C@]5(C)C4C(=O)C[C@]3(C)C1[C@@H]2C (stereo not given in full) | 1 |  |
| C[C@@H]1CC[C@@]2(OC1)OC1C[C@H]3[C@@H]4CC[C@H]5C[C@@H](O[C@@H]6O[C@@H](CO)[C@@H](O[C@@H]7O[C@@H](COC(=O)Nc8ccccc8F)[C@@H](O)[C@H](O)[C@@H]7O)[C@H](O)[C@@H]6O)CC[C@]5(C)[C@H]4C(=O)C[C@]3(C)C1[C@@H]2C (stereo not given in full) | 0.2 |  |
| C[C@@H]1CC[C@@]2(OC1)OC1CC3C4CC[C@H]5C[C@@H](O[C@@H]6O[C@@H](CO)[C@@H](O[C@@H]7O[C@@H](COC(=S)Nc8ccccc8)[C@@H](OC(=S)Nc8ccccc8)[C@H](O)[C@@H]7O)[C@H](O)[C@@H]6O)CC[C@]5(C)C4C(=O)C[C@]3(C)C1[C@@H]2C (stereo not given in full) | 0.04 |  |
| C[C@@H]1CC[C@@]2(OC1)OC1CC3C4CC[C@H]5C[C@@H](O[C@@H]6O[C@@H](COC(=O)Nc7c(Cl)cccc7Cl)[C@@H](O[C@@H]7O[C@@H](COC(=O)Nc8c(Cl)cccc8Cl)[C@@H](O)[C@H](O)[C@@H]7O)[C@H](O)[C@@H]6O)CC[C@]5(C)C4C(=O)C[C@]3(C)C1[C@@H]2C (stereo not given in full) | 0.4 |  |
| C[C@@H]1CC[C@@]2(OC1)OC1CC3C4CC[C@H]5C[C@@H](O[C@@H]6O[C@@H](CO)[C@@H](O[C@@H]7O[C@@H](COC(=O)Nc8ccc(F)cc8F)[C@@H](O)[C@H](O)[C@@H]7O)[C@H](O)[C@@H]6O)CC[C@]5(C)C4C(=O)C[C@]3(C)C1[C@@H]2C (stereo not given in full) | 0.25 |  |
